{"source": "patent US6221865A", "about": "“Inhibitors of protein isoprenyl transferases” (priority 1998, dated 2001)", "target": "T1, protein farnesyltransferase (Rattus norvegicus, UniProt Q02293+Q04631)", "T1 construct": "The enzyme is purified according to Reiss, Y., et al., Cell, 62: 81-88 (1990), utilizing steps one through three; from tissue; host or cells: rat brain", "T1 sequence (Q02293 whole entry, the tested form may be a part, one chain of several)": "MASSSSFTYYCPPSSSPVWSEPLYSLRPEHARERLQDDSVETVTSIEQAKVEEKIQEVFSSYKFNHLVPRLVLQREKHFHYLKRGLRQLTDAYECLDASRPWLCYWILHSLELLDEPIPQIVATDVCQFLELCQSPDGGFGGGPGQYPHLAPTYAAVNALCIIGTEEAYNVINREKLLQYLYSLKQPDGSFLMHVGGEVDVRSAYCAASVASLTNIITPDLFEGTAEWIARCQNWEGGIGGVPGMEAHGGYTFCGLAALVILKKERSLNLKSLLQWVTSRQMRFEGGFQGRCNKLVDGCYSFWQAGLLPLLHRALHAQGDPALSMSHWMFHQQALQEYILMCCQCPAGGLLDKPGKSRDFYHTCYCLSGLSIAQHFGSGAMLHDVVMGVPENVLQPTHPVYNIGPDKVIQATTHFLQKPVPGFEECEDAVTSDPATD", "test": "Inhibition of farnesyltransferase (scintillation proximity assay, rat brain enzyme, biotin-K Ras B fragment substrate)", "type": "biochemical", "conditions": "for % inhibition of farnesyltransferase at 1 × 10^-8 M / inhibition at 0.01 µM: 1 × 10^-8 M (Table 4); for inhibition at 0.1 µM: read-out: % inhibition of farnesyltransferase at 1 × 10^-7 M; for inhibition at 0.1 µM / % inhibition of farnesyltransferase at 1 × 10^-7 M: 1 × 10^-7 M (Table 3); for inhibition at 0.01 µM: read-out: % inhibition of farnesyltransferase at 1 × 10^-8 M; for % inhibition of farnesyltransferase at 1 × 10^-6 M / inhibition at 1 µM: 1 × 10^-6 M (Table 2); for inhibition at 1 µM: read-out: % inhibition of farnesyltransferase at 1 × 10^-6 M", "method_in_brief": "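Enzyme from rat brain, partly purified (steps one to three), assayed by SPA kit using 0.1 mM final biotin-K Ras B peptide as prenyl acceptor rather than biotin-lamin. Activity given as percent inhibition.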", "data": [{"smiles": "CSCC[C@H](NC(=O)c1ccc(CN(Cc2ccccc2)c2ccc(SC)cc2)cc1-c1ccccc1C)C(=O)[O-].[Li+]", "note": "[Example 852]", "values": [{"measurement": "% inhibition of farnesyltransferase at 1 × 10^-8 M", "value": 79, "unit": "%"}]}, {"smiles": "CSCC[C@H](NC(=O)c1ccc(CN(Cc2ccccc2)c2ccc(C(F)(F)F)cc2)cc1-c1ccccc1C)C(=O)O", "note": "[Example 853]", "values": [{"measurement": "% inhibition of farnesyltransferase at 1 × 10^-8 M", "value": 85, "unit": "%"}]}, {"smiles": "CSCC[C@H](NC(=O)c1ccc(/C=C/c2ccc(Oc3ccccc3Cl)cc2)cc1-c1ccccc1C)C(=O)O", "note": "[Example 854, N-[4-(2-(4-(2-chlorophenoxy)phenyl)ethen-1-yl)-2-(2-methylphenyl)benzovyl]methionine]", "values": [{"measurement": "inhibition at 0.1 µM", "value": 78, "unit": "%"}]}, {"smiles": "CSCC[C@H](NC(=O)c1ccc(CCc2ccc(Oc3ccccc3Cl)cc2)cc1-c1ccccc1C)C(=O)O", "note": "[Example 855, N-[4-(2-(4-(2-chlorophenoxy)phenyl)ethyl)-2-(2-methylphenyl)benzoyl]methionine]", "values": [{"measurement": "inhibition at 0.1 µM", "value": 92, "unit": "%"}]}, {"smiles": "CSCC[C@H](NC(=O)c1ccc(/C=C/c2ccc(Oc3ccccc3[N+](=O)[O-])cc2)cc1-c1ccccc1C)C(=O)O", "note": "[Example 856, N-[4-(2-(4-(2-nitrophenoxy)phenyl)ethen-1-yl)-2-(2-methylphenyl)benzoyl]methionine]", "values": [{"measurement": "inhibition at 0.1 µM", "value": 97, "unit": "%"}]}, {"smiles": "CSCC[C@H](NC(=O)c1ccc(CCc2ccc(Oc3ccccc3N)cc2)cc1-c1ccccc1C)C(=O)O", "note": "[Example 857, N-[4-(2-(4-(2-aminophenoxy)phenyl)ethyl)-2-(2-methylphenyl)benzoyl]methionine]", "values": [{"measurement": "inhibition at 0.1 µM", "value": 92, "unit": "%"}]}, {"smiles": "CSCC[C@H](NC(=O)c1ccc(/C=C/c2ccc(Oc3cccc(Cl)c3)cc2)cc1-c1ccccc1C)C(=O)O", "note": "[Example 858, N-[4-(2-(4-(3-chlorophenoxy)phenyl)ethen-1-yl)-2-(2-methylphenyl)benzoyl]methionine]", "values": [{"measurement": "inhibition at 0.01 µM", "value": 60, "unit": "%"}]}, {"smiles": "CSCC[C@H](NC(=O)c1ccc(CCc2ccc(Oc3cccc(Cl)c3)cc2)cc1-c1ccccc1C)C(=O)O", "note": "[Example 859, N-[4-(2-(4-(3-chlorophenoxy)phenyl)ethyl)-2-(2-methylphenyl)benzoyl]methionine]", "values": [{"measurement": "inhibition at 0.1 µM", "value": 86, "unit": "%"}]}, {"smiles": "CSCC[C@H](NC(=O)c1ccc(CCc2ccc(Oc3ccc(Cl)cc3)cc2)cc1-c1ccccc1C)C(=O)O", "note": "[Example 860, N-[4-(2-(4-(4-chlorophenoxy)phenyl)ethyl)-2-(2-methylphenyl)benzoyl]methionine]", "values": [{"measurement": "inhibition at 0.01 µM", "value": 85, "unit": "%"}]}, {"smiles": "CSCC[C@H](NC(=O)c1ccc(/C=C/c2ccc(Oc3cccc([N+](=O)[O-])c3)cc2)cc1-c1ccccc1C)C(=O)O", "note": "[Example 861, N-[4-(2-(4-(3-nitrophenoxy)phenyl)ethen-1-yl)-2-(2-methylphenyl)benzoyl]methioziine]", "values": [{"measurement": "inhibition at 0.1 µM", "value": 65, "unit": "%"}]}, {"smiles": "CSCC[C@H](NC(=O)c1ccc(CNc2ccc(N3CCCCC3)cc2)cc1-c1ccccc1C)C(=O)O", "note": "[Example 862]", "values": [{"measurement": "% inhibition of farnesyltransferase at 1 × 10^-6 M", "value": 95, "unit": "%"}]}, {"smiles": "CSCC[C@H](NC(=O)c1ccc(CNc2ccc(N3CCOCC3)cc2)cc1-c1ccccc1C)C(=O)O", "note": "[Example 863]", "values": [{"measurement": "% inhibition of farnesyltransferase at 1 × 10^-7 M", "value": 72, "unit": "%"}]}, {"smiles": "CSCC[C@H](NC(=O)c1ccc(CNc2ccc(Oc3ccccc3)cc2)cc1-c1ccccc1C)C(=O)O", "note": "[Example 864]", "values": [{"measurement": "% inhibition of farnesyltransferase at 1 × 10^-7 M", "value": 84, "unit": "%"}]}, {"smiles": "CSCC[C@H](NC(=O)c1ccc(CN2CCN(C(=O)OC(C)(C)C)CC2)cc1-c1ccccc1C)C(=O)O", "note": "[Example 866, N-[4-(4-t-butoxycarbonylpiperazin-1-ylmethyl)-2-(2-methylphenyl)benzoyl]methionine]", "values": [{"measurement": "inhibition at 1 µM", "value": 62, "unit": "%"}]}, {"smiles": "CSCC[C@H](NC(=O)c1ccc(CN2CCN(c3ccccc3)CC2)cc1-c1ccccc1C)C(=O)O", "note": "[Example 867, N-[4-(4-phenylpiperazin-1-ylmethyl)-2-(2-methylphenyl)benzoyl]methionine]", "values": [{"measurement": "inhibition at 1 µM", "value": 71, "unit": "%"}]}, {"smiles": "CSCC[C@H](NC(=O)c1ccc(COCc2ccc(-c3ccc(F)cc3)o2)cc1-c1cccc2ccccc12)C(=O)[O-].[Li+]", "note": "[Example 868]", "values": [{"measurement": "% inhibition of farnesyltransferase at 1 × 10^-6 M", "value": 89, "unit": "%"}]}, {"smiles": "CSCC[C@H](NC(=O)c1ccc(COCc2ccc(-c3ccc(F)cc3)o2)cc1-c1ccc(F)cc1Cl)C(=O)[O-].[Li+]", "note": "[Example 869]", "values": [{"measurement": "% inhibition of farnesyltransferase at 1 × 10^-7 M", "value": 92, "unit": "%"}]}]}
